Assay in all cases: Cell growth inhibition assay (Cell Titer Glo, 7 days)
What all share (type): cell-based, Human
On the technique in general: Cellular ATP, detected with luciferase, serves as a proxy for viable cell number.

In one experiment the test system is A375. Conditions: A375 melanoma line, relative to vehicle (DMSO). As for the experimental part: (§1) Human colon tumor lines, Colo-205, HT-29, RKO, SW1417, LS411N and human melanoma line A375 were from ATCC. All lines were cultured in RPMI 1640 medium containing 10% fetal bovine serum (FBS).
(§2) All cells were cultured for a minimum of 72 hours prior to cell plating. Cells were assayed in a 96-well tissue culture plate (NUNC 136102) of RPMI medium containing 10% FBS for all cells at 500 cells per well. […] ATP levels were determined by adding Cell Titer Glo® (Promega) according to the manufacturer's protocol. Briefly, Cell Titer Glo0 was added to each plate, incubated for 30 minutes then luminescent signal was read on the SpectraMax L plate reader with a 0.5 sec integration time.
(§3) Inhibition of cell growth was estimated after treatment with compound or combination of compounds for 7 days and comparing the signal to cells treated with vehicle (DMSO). Cell growth was calculated relative to vehicle (DMSO) treated control wells.

A further experiment deals with RKO. As to conditions: RKO BRAF V600E mutant CRC line, relative to vehicle (DMSO). The method, then: as §1, §2, §3
In another experiment the test system is HT-29. Conditions: HT-29 BRAF V600E mutant CRC line, relative to vehicle (DMSO). The method, then: as §1, §2, §3
A further experiment relates to LS411N. Conditions: LS411N BRAF V600E mutant CRC line, relative to vehicle (DMSO). As for the experimental part:
as §1, §2, §3

A further experiment deals with Colo-205. Conditions: Colo-205 BRAF V600E mutant CRC line, relative to vehicle (DMSO). The method, then: as §1, §2, §3
The next experiment deals with SW1417. Conditions: SW1417 BRAF V600E mutant CRC line, relative to vehicle (DMSO). The method, then: as §1, §2, §3

Regarding `C#Cc1cccc(Nc2ncnc3cc(OCCOC)c(OCCOC)cc23)c1` [erlotinib, reference compound], the “cell growth inhibition, agent alone” value in the experiment with A375, with RKO, in the experiment with HT-29, in the experiment with LS411N, with Colo-205 and in the experiment on SW1417 was “inactive” in each case.
As for `CC(=O)Nc1cccc(-n2c(=O)n(C3CC3)c(=O)c3c(Nc4ccc(I)cc4F)n(C)c(=O)c(C)c32)c1` [Compound A, N-{3-[3-cyclopropyl-5-(2-fluoro-4-iodo-phenylamino)6,8-dimethyl-2,4,7-trioxo-3,4,6,7-tetrahydro-2H-pyrido[4,3-d]pyrimidin-1-yl]phenyl}acetamide], the “cell growth inhibition, agent alone” value in the experiment with A375 is “sensitive”; with RKO, “resistant”; in the experiment with HT-29, “sensitive”; in the experiment with LS411N, “sensitive”; with Colo-205 it was “sensitive”; in the experiment with SW1417, “resistant”.
For `CC(C)(C)c1nc(-c2cccc(NS(=O)(=O)c3c(F)cccc3F)c2F)c(-c2ccnc(N)n2)s1` [Compound B, N-{3-[5-(2-Amino-4-pyrimidinyl)-2-(1,1-dimethylethyl)-1,3-thiazol-4-yl]-2-fluorophenyl}-2,6-difluorobenzenesulfonamide], the “cell growth inhibition, agent alone” value with A375 is recorded as “sensitive”; in the experiment on RKO it was “resistant”; in the experiment on HT-29 it was “sensitive”; in the experiment on LS411N, “sensitive”; in the experiment with Colo-205, “sensitive”; in the experiment on SW1417 it was “resistant”.

(Values after patent US20150273057A1, “Combination” (GLAXOSMITHKLINE LLC, priority 2012, published 2015).)
